The subject of test [1] is A20:T20 duplex DNA (dA20:dT20) (DNA, duplex) AAAAAAAAAAAAAAAAAAAA/TTTTTTTTTTTTTTTTTTTT
The experiment in a line: UV thermal melting at 260 nm. The conditions noted are these: 20 mM NaCl; 10 mM HEPES pH 7.5; 200 µM chloroquine; 4 µM duplex; fitted saturating ΔTm 16 ± 2 °C.

For test [2] the test system is unchanged. The experiment in a line: isothermal titration calorimetry. The conditions noted are these: 20 mM NaCl (30 mM Na+ in Table 1); 10 mM Na phosphate pH 7.5; 25 °C; 10 µM DNA; N constrained to 4; binding site size 5 bp.
The test system is the same in test [3]. Nature of the test: UV thermal melting, ΔTm binding isotherm fit. The conditions noted are these: 20 mM NaCl; 10 mM HEPES pH 7.5; 4 µM duplex; chloroquine diphosphate; from ΔTm vs concentration.

For the compound `CCN(CC)CCCC(C)Nc1ccnc2cc(Cl)ccc12` (stereo not drawn), in test [1], the Tm increase was ~ 10 °C. Besides, the figures for the KD in test [2] and in test [3] were 360 ± 20 µM and 90 ± 10 µM, respectively.

(Values after article PMC10855526 (2024).)
